Key:
[1] = system: Hsp70; test: Western blot of Hsp70 protein in avicin D treated Jurkat cells; type: cell-based, human; details: avicin D 1 μM, within one hour up to 4 hours, western blot vs untreated
Method: (§1) Jurkat T cells (2 μg/ml=1 μM), U-937 (4 μg/ml), MJ (5 μg/ml), and HH cells (2.5 μg/ml) were treated for 0-24 hours with the indicated concentrations of avicin D. PBLs from the patients or normal blood were treated with 5 μg/ml of avicin D for 24 hours.
(§2) At the end of treatments, cells were harvested, washed with sterile ice-cold PBS and cytoplasmic extracts (CE) were prepared by lysing the cells in CE buffer containing 10 mM Hepes-Cl pH 7.5, 10 mM KCl, 0.1 mM EDTA, 0.1 mM EGTA, 0.3% NP40, and a protease inhibitor cocktail (Sigma). After centrifugation and separating the supernatant (CE proteins), the pellet was resuspended in a buffer containing 20 mM Hepes-Cl, 400 mM NaCl, 1 mM EDTA, 1 mM EGTA, and protease inhibitor cocktail (Sigma). The nuclear protein extraction proceeded for 30 min. on ice followed by centrifugation at 14,000 rpm for 5 min at 4° C. The clear supernatant containing nuclear proteins (NE) was collected, glycerol (10%) was added, and proteins stored at −80° C. until use.
SDS-PAGE and immunoblot procedures were essentially performed as described (Sambrook, 1989). Briefly, cytoplasmic and nuclear proteins were resolved on SDS-PAGE, blotted on PVDF membranes (BioRad) and probed with various antibodies followed with anti-rabbit, anti-mouse antibody conjugated to horseradish peroxidase (HRP) from BioRad or HRP conjugated anti-goat antibody from Santa Cruz Biotechnology, corresponding to the primary antibody. Protein bands were detected using the ECL chemiluminescence kit from Amersham as per the manufacturer's protocol.
(§3) Quantitation of proteins (western) and transcripts (RT-PCR) was performed using the NIH 1.61 image software.

[2] = system: CTCL cells; test: Apoptosis in PBL from Sezary syndrome patients; type: cell-based, human
Method: as §1

[3] = system: Hsp70; test: Western blot of Hsp70 in leukemic/lymphoma cell-lines; type: cell-based, human; details: Jurkat, U937, MJ-1, and HH cells, 24 hours post-treatment
Method: Human Jurkat T cell leukemia, monocytic U937 cells, and cutaneous T-cell lymphoma (CTCL) cell lines MJ (G11) and HH were obtained from American Type Culture Collection (Rockville, Md.) and grown in RPMI 1640 medium supplemented with 10% FBS and 2 mM glutamine.
as §1
as §2, with “The nuclear protein extraction proceeded for 30 min. on ice followed by centrifugation at 14,000 rpm for 5 min at 4° C. The clear supernatant containing nuclear proteins (NE) was collected, glycerol (10%) was added, and proteins stored at −80° C. until use.” left out
(§4) SDS-PAGE and immunoblot procedures were essentially performed as described (Sambrook, 1989). […] Protein bands were detected using the ECL chemiluminescence kit from Amersham as per the manufacturer's protocol.
as §3

[4] = system: Hsp70α transcript; test: One-step RT-PCR of Hsp70α transcript in Jurkat cells; type: cell-based, human; details: as early as 30 minutes
Method: (§5) Total RNA purified using Trizol method (Invitrogen) was subjected to DNAseI (RNAase free, Sigma Chemical Co.) treatment to remove any residual DNA, followed by heat inactivation and addition of 1 mM EDTA. Absence of genomic DNA was confirmed by performing PCR using Taq DNA polymerase. About 50-100 ng of purified total RNA was used in a one-step RT-PCR reaction kit from Invitrogen in a Techne Genius machine. The samples were separated on 0.8% agarose-TBE gels and viewed by staining with ethidium bromide.
as §3

[5] = system: caspase 3; test: Western blot of caspase 3 activation in Jurkat cells; type: cell-based, human; details: 2-4 hours
Method: as §1, §2, §4

[6] = system: Hsp90; test: Western blot of Hsp90 protein in avicin D treated Jurkat cells; type: cell-based, human; details: avicin D 1 μM, within one hour up to 4 hours, western blot vs untreated
Method: as §1, §2, §4, §3

[7] = system: his-ub-Hsp70; test: In vivo ubiquitination of Hsp70 in his-ub transfected Jurkat cells; type: cell-based, human; details: his-ub transfected Jurkat cells, avicin D 1 μM, 2 and 4 hours, p<0.05
Method: Jurkat T-cells were transfected with a plasmid pDG268 that expresses a fusion protein of histidine-tagged human ubiquitin and enhanced GFP. Transfection was performed using μm ax a Biosystems kit and their protocol. After 24 hours of transfection, cells were harvested, resuspended at a density of 10^6 cells/ml before treatment with lactacystin or avicin D.
Jurkat T cells transfected with the his-ub plasmid construct were treated with lactacystin (10 μM) or with avicin D (1 μM) for 4 hours. Cells were harvested and CE prepared as described above. […] The affinity purified histidine-tagged proteins were separated on SDS-PAGE and analyzed on western blots for ub-Hsp70 proteins.

[8] = system: Hsc70, Hsp60, grp75, calnexin; test: Western blot of other chaperone proteins in avicin D treated Jurkat cells; type: cell-based, human; details: avicin D 1 μM, up to 4 hours
Method: as §1, §2, §4, §3

[9] = molecular target: T1, 20S proteasomal activity (Homo sapiens, UniProt Q99436); test: 20S proteasomal assay in Jurkat cells; type: cell-based; details: for decrease in the 20S proteasomal activity: avicin D 1 μM
T1 construct: Proteasomal extracts (PE) were prepared; endogenous in cells; host or cells: Jurkat T cells (proteasomal extracts)
T1 sequence (Q99436 44-277): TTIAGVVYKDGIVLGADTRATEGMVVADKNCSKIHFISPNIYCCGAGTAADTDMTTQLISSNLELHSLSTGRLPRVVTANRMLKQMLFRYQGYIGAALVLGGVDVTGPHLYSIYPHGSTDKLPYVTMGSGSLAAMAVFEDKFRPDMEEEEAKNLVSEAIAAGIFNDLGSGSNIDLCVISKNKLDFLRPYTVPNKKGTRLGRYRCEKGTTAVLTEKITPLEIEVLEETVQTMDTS
Method: Jurkat T cells were treated with 1 μM of avicin D for 0-4 hours. Proteasomal extracts (PE) were prepared as described previously (18) in a buffer containing 50 mM Hepes pH 8, 5 mM EGTA, 0.3% NP40, and 10% glycerol. The assay reaction contained 20 mM Tris-Cl pH7.2, 0.1 mM EDTA, 1 mM β-mercaptoethanol, 5 mM ATP, 20% glycerol, 0.02% SDS, and 0.04% NP40. About 10 μg of the PE proteins and BocLRR-AMC (0.1 mM), which allows measurement of the trypsin-like activity of proteasomes, was used as substrate. The reaction was carried out at 30° C. for 30 minutes and the fluorescence was read at 380 nm (excitation) and 460 nm (emission) in a Perkin Elmer HTS 7000 Plus, Bioassay Reader.
Statistical significance of differences observed in the proteasomal activity in avicin treated cells compared with the untreated cells was determined by using an unpaired Student t test. The minimum level of significance was a P<0.05.

[10] = system: Hsp90α, Hsc70, and Hsp60 transcripts; test: One-step RT-PCR of Hsp90α, Hsc70 and Hsp60 transcripts in Jurkat cells; type: cell-based, human
Method: as §5, §3

Which results are given for `C=C[C@](C)(O)CC/C=C(\CO)C(=O)O[C@H]1[C@H](O)[C@@H](O)[C@H](O[C@@](C)(C=C)CC/C=C(\CO)C(=O)O[C@H]2C[C@]3(C(=O)O[C@@H]4O[C@H](CO)[C@@H](O)[C@H](O)[C@H]4O[C@@H]4O[C@@H](C)[C@H](O[C@@H]5O[C@@H](CO)[C@H](O)[C@H]5O)[C@@H](O[C@@H]5O[C@H](CO)[C@@H](O)[C@H](O)[C@H]5O)[C@H]4O)[C@H](O)C[C@]4(C)C(=CC[C@@H]5[C@@]6(C)CC[C@H](O[C@@H]7O[C@H](CO[C@@H]8O[C@H](C)[C@H](O)[C@H](O)[C@H]8O[C@@H]8OC[C@@H](O)[C@H](O)[C@H]8O)[C@@H](O)[C@H](O)[C@H]7NC(C)=O)C(C)(C)[C@@H]6CC[C@]54C)[C@@H]3CC2(C)C)O[C@@H]1C` [avicin D]?
protein levels of Hsp70 [1]: significant decrease; apoptosis [2]: caused apoptosis; Hsp70 protein level [3]: significant decrease; increase in the Hsp70α transcript (RT-PCR) [4]: ~1.6 fold; caspase 3 activation [5]: caspase 3 activation; protein levels of Hsp90 [6]: significant decrease; decrease in the levels of his-ub-Hsp70 protein band [7]: 40%; expression of other chaperone proteins (Hsc70, Hsp60, grp75, calnexin) [8]: did not show any change; decrease in the 20S proteasomal activity ([9]; 2 hours): 33%; decrease in the 20S proteasomal activity ([9]; 4 hours): 41%; decrease in proteasome activity ([9]; during 2-4 hours of treatment): 30-40%; changes in the transcripts encoding Hsp90α, Hsc70, and Hsp60 (RT-PCR) [10]: marginal

From US20090018146A1, “Combination Therapy with Triterpenoid Compounds and Proteasome Inhibitors” (Research Development Corporation, priority 2005, published 2009)
